Results: patent US20260256909A1, “COMBINATION OF A BTN3A ACTIVATING ANTIBODY, A BCL2 INHIBITOR AND HYPOMETHYLATING AGENT FOR USE IN TREATING CANCER” (Imcheck Therapeutics, priority 2022, published 2026)

Assays:
Vγ9Vδ2 T cells = assay: ICT01-induced IFNγ production by Vγ9Vδ2 T cells in HD-PBMC (intracellular staining); type: cell-based, human; settings: for effect on ICT01-induced IFNγ production by Vγ9Vδ2 T cells: single agent, independent of IL2
Description: To evaluate the effect of Venetoclax and 5-Azacytidine on cytokine production, freshly isolated human PBMC from healthy donors (HD, n=6) were cultured in PBMC medium (RPMI 1640 Medium supplemented with 10% Fetal Bovine Serum (FBS), 1% Penicillin/Streptomycin and 1 mM Sodium Pyruvate) and treated with ICT01 or its isotype control (hIgG1S) used at 1 μg/mL in the presence or absence of increasing concentrations of Venetoclax (0-0.1 μM), 5-Azacytidine (0-0.4 μM) or the combination. Half of the cells were additionally treated with 50 IU/mL IL2. Golgi Stop was added after 6-8 hours of co-culture and cells were harvested 16 h later, centrifuged at 1800 rpm for 5 minutes and then incubated 10 minutes at room temperature (RT) with 25 μl of FcR blocking reagent (Miltenyi Biotec) before adding 25 μL of the following antibody mix prepared in PBS+2% FBS+2 mM EDTA (FACS buffer): anti-CD4-BV650, Vγ9-FITC, CD3-PE-CF594, CD56-PE-Vio770 and CD8-AF700 antibodies for the identification of immune subsets, and a viability marker (LIVE/DEAD™ Fixable Dead Cell Stain) was added to distinguish live from dead cells. After 20 minutes, 100 μL of CytoFix solution (BD Bioscience) was added, and cells were incubated for 20 minutes at 4° C. 100 μL of Perm/Wash (BD Bioscience) were added, cells centrifuged and washed once in 200 μL Perm/Wash. After washing, cells were stained with anti-IFNγ-APC antibody for 30 minutes at 4° C., washed twice with Perm/Wash, and analyzed by flow cytometry.

KG1a AML cells = assay: Killing of KG1a AML cells in co-culture with HD-PBMC (flow cytometry); type: cell-based, human; settings: for effect on Vγ9Vδ2 T cell killing activity compared to hIgG1S conditions: upon activation with ICT01, single agent, KG1a co-culture with HD-PBMC
Description: A) Sensitivity of KG1a cell line to Venetoclax, 5-Azacytidine or the combination. […] N=2 experiments. B) Mean±SEM relative number of Live KG1a AML cells monitored by flow cytometry after 3 days of co-culture with HD-PBMC (E:T ratio 25:1) treated with ICT01 (black) or its isotype control (hIgG1S, light grey) at 0.1 or 1 μg/mL. N=6, each dot represents one healthy donor. C) Schematic representation of treatment schedule for killing of KG1a AML cells by HD-PBMC. D) Relative number of Live KG1a AML cells (Mean±SEM) (left) and Frequency of Live KG1a AML cell relative to no Venetoclax or 5-Azacytidine treatment (Mean±SEM) (right) after 3 days of co-culture with HD-PBMC in presence of ICT01 (black) or its isotype control (hIgG1S, light grey) and treatment with Venetoclax, 5-Azacytidine or the combination. N=6, each dot represents one healthy donor, * p<0.05, Wilcoxon test.
KG1a cells were co-cultured with HD-PBMC at ratio 5:1 in presence of m20.1 or isotype control (0.1 μg/mL). After 6 hrs, indicated concentrations of Venetoclax, 5-Azacytidine or the combination were added to the culture. Relative number of live KG1a was monitored after 48 hrs by flow cytometry. […] N=6, each dot represents one healthy donor, * p<0.05, ** p<0.01, *** p<0.001, **** p<0.0001, 2 way ANOVA.
KG1a or MOLM14 AML cell lines were co-cultured with HD-PBMC at ratio 5:1 in presence of ICT01 or isotype control (0.1 μg/mL). After 6 hrs, indicated concentrations of ABT-737, Navitoclax or MIK665 were added to the culture. A) Relative numbers of live KG1a cells (Mean±SEM) after 2 days of co-culture with HD-PBMC in presence of ICT01 (black) or its isotype control hIgG1S (light grey) and treatment with indicated concentration of ABT-737. B) Relative numbers of live KG1a cells (Mean±SEM) after 2 days of co-culture with HD-PBMC in presence of ICT01 (black) or its isotype control hIgG1S (light grey) and treatment with indicated concentration of Navitoclax. C) Relative numbers of live MOLM14 cells (Mean±SEM) after 2 days of co-culture with HD-PBMC in presence of ICT01 (black) or its isotype control hIgG1S (light grey) and treatment with indicated concentration of MIK665. N=6 HD, each dot represents one healthy donor, * p<0.05, 2 way ANOVA.
The effect of Venetoclax and 5-Azacytidine on anti-BTN3A antibodies-induced killing of AML cell lines by Vγ9Vδ2 T cells was assessed by measuring the relative number of surviving target cells in a HD-PBMC-AML cell co-culture using flow cytometry.
Then, KG1a AML cells were stained with CellTrace CFSE Proliferation dye (ThermoFisher) to allow for specific detection by flow cytometry, counted, put into a co-culture with thawed HD-PBMC and treated with the anti-BTN3A mAbs ICT01 or m20.1 or their respective isotype controls (hIgG1S or mIgG1) in PBMC medium (RPMI 1640 Medium supplemented with 10% Fetal Bovine Serum (FBS) and 1 mM Sodium Pyruvate). On day one of culture, increasing concentrations of Venetoclax (0-0.4 μM), 5-Azacytidine (0-0.4 μM) or the combination were added. Cells were harvested on day 3 of co-culture, centrifuged at 1800 rpm for 5 minutes and then incubated 10 minutes at room temperature (RT) with 25 μl of FcR blocking reagent (Miltenyi Biotec) before adding 25 μL of the following antibody mix prepared in PBS+2% FBS+2 mM EDTA (FACS buffer): anti-CD56-BV421, CD19-BV421, CD14-BV785, Tyb-PE and CD3-AF700 antibodies for the identification of immune subsets, and a viability marker (LIVE/DEAD™ Fixable Dead Cell Stain) was added to distinguish live and dead cells. Cells were incubated 20 minutes at room temperature, washed once in FACS buffer and once in AnnexinV staining buffer. An AnnexinV-APC probe mixed with CountBright Absolute Counting Beads (Invitrogen) was added to determine apoptosis and relative cell numbers, followed by 15 minutes incubation at RT before flow cytometry analysis. […]

Row | Molecule | IFNγ production by Vγ9Vδ2 T cells (Vγ9Vδ2 T cells; HD-PBMC activated with ICT01 (1 μg/mL) in presence of IL2 (50 IU/mL)) | IFNγ production by Vγ9Vδ2 T cells (Vγ9Vδ2 T cells; HD-PBMC activated with ICT01 alone (1 μg/mL), no IL2) | average reduction of live KG1a cell numbers compared to hIgG1S conditions (KG1a AML cells; 3 days co-culture with HD-PBMC (E:T ratio 25:1), large variability within PBMC donors) | KG1a cell death as compared to control condition (KG1a AML cells; ICT01 0.1 μg/mL, HD-PBMC ratio 5:1, 2 days (FIG. 8a)) | effect on ICT01-induced IFNγ production by Vγ9Vδ2 T cells (Vγ9Vδ2 T cells) | reduction of KG1a relative numbers (KG1a AML cells; hIgG1S-treatment conditions, highest concentration, co-culture with HD-PBMC, day 3) | reduction of KG1a relative numbers (KG1a AML cells; mIgG1 conditions, Venetoclax 0.1 μM alone or combined with 0.4 μM 5-Azacytidine, HD-PBMC ratio 5:1, 48 hrs) | effect on Vγ9Vδ2 T cell killing activity compared to hIgG1S conditions (KG1a AML cells) | effect on KG1a survival (KG1a AML cells; hIgG1S conditions, co-culture with HD-PBMC, day 3) | effect on KG1a survival (KG1a AML cells; mIgG1 conditions, HD-PBMC ratio 5:1, 48 hrs)
1 | ICT01: humanized BTN3A activating antibody of mAb 7.2, heavy chain SEQ ID NO: 4, light chain SEQ ID NO: 6, silent IgG1 L247F/L248E/P350S | 89.1% | 30.4% | ~ 20% | ~ 21% | – | – | – | – | – | –
2 | CC1(C)CCC(CN2CCN(c3ccc(C(=O)NS(=O)(=O)c4ccc(NCC5CCOCC5)c([N+](=O)[O-])c4)c(Oc4cnc5[nH]ccc5c4)c3)CC2)=C(c2ccc(Cl)cc2)C1 [Venetoclax, 4-[4-[[2-(4-chlorophenyl)-4,4-dimethylcyclohexen-1-yl]methyl]piperazin-1-yl]-N-[3-nitro-4-(oxan-4-ylmethylamino)phenyl]sulfonyl-2-(1H-pyrrolo[2,3-b]pyridin-5-yloxy)benzamide] | – | – | – | – | no effect | ~ 28% | 41% | slight increasing effects | – | –
3 | Nc1ncn([C@@H]2O[C@H](CO)[C@@H](O)[C@H]2O)c(=O)n1 [5-Azacytidine, 4-amino-1-[(2R,3R,4S,5R)3,4-dihydroxy-5-(hydroxymethyl)oxolan-2-yl]-1,3,5-triazin-2-one] | – | – | – | – | no effect | – | – | slight increasing effects | no effect | no effect
